Experimental data taken from US10414788B2, “Substituted thienopyrrolopyrimidine ribonucleosides for therapeutic use” (USTAV ORGANICKE CHEMIE A BIOCHEMIE AV CR, V.V.I., priority 2016, dated 2019).
pIC50: −log10 of the molar value. Blank lines part the entries; values can stand above or below the compound they belong to.

Experiments:
[1] = system: A549 (human lung adenocarcinoma); experiment: MTT in vitro cytotoxic test, A549; assay type: cell-based; details: A549 cells
Source text: (§1) MTT test was used for in vitro evaluation of antitumor activities of newly synthesized compounds on cell lines derived from normal tissues or tumors. Specifically, cell lines K562 (human […]), K562-Tax (human […] myeloid leukemia, paclitaxel resistant subline, overexpress multiple drug resistant protein PgP), CEM (T-lymfoblastic leukemia), CEM-DNR-bulk (T-lymfoblastic leukemia, doxorubicin resistant), A549 (human lung adenocarcinoma), HCT116 wt (human colorectal cancer, wild-type), HCT116p53−/−(human colorectal cancer, mutant p53) a U2OS (human bone osteosarcoma) were used.
(§2) Express characteristics, susceptibility profiles of classic antitumor drugs as well as methodology of cytotoxic MTT test have been repeatedly published {ref.:Noskova, V.; Dzubak, P.; Kuzmina, G.; Ludkova, A.; Stehlik, D.; Trojanec, R.; Janostakova, A.; Korinkova, G.; Mihal, V.; Hajduch, M., Neoplasma 2002, 49, 418-425}.

[2] = system: CCRF-CEM (CEM, T-lymfoblastic leukemia); experiment: MTT in vitro cytotoxic test, CCRF-CEM; assay type: cell-based; details: Homo sapiens, CCRF-CEM cells
Source text: as §1, §2

[3] = system: CEM-DNR-bulk (T-lymfoblastic leukemia, doxorubicin resistant); experiment: MTT in vitro cytotoxic test, CEM-DNR; assay type: cell-based; details: Homo sapiens, CEM-DNR cells (doxorubicin resistant)
Source text: as §1, §2

[4] = system: HCT116 wt (human colorectal cancer, wild-type); experiment: MTT in vitro cytotoxic test, HCT116; assay type: cell-based; details: HCT-116, HCT116 cells (p53 wild type)
Source text: as §1, §2

[5] = system: HCT116p53−/− (human colorectal cancer, mutant p53); experiment: MTT in vitro cytotoxic test, HCT116p53; assay type: cell-based; details: HCT116p53−/− cells
Source text: as §1, §2

[6] = system: K562 (human acute myeloid leukemia); experiment: MTT in vitro cytotoxic test, K562; assay type: cell-based; details: K562 cells
Source text: as §1, §2

[7] = system: K562-Tax (human acute myeloid leukemia, paclitaxel resistant subline); experiment: MTT in vitro cytotoxic test, K562-TAX; assay type: cell-based; details: K562-TAX cells (paclitaxel resistant)
Source text: as §1, §2

[8] = system: U2OS (human bone osteosarcoma); experiment: MTT in vitro cytotoxic test, U2OS; assay type: cell-based; details: U2OS cells
Source text: as §1, §2

[9] = system: cancer cell lines of various histogenetic origin; experiment: In vitro cytotoxic test, summary over cancer cell lines; assay type: cell-based, human; details: text summary of Table 4
Source text: as §1, §2

melting point: 117 °C
SMILES: CN(C)c1ncnc2c1c1ccsc1n2[C@@H]1O[C@H](CO)[C@@H](O)[C@H]1O [Compound 1e, 4-(N,N-dimethylamino)-8-(β-D-ribofuranosyl)-8H-thieno[3′,2′:4,5]pyrrolo[2,3-d]pyrimidine]
pIC50 [1]: 4.30 to 4.60
pIC50 [2]: 4.30 to 4.60
pIC50 [3]: 4.30 to 4.60
pIC50 [4]: 4.30 to 4.60
pIC50 [5]: 4.30 to 4.60
pIC50 [6]: 4.30 to 4.60
pIC50 [7]: 4.30 to 4.60
pIC50 [8]: 4.30 to 4.60

melting point: 98 °C
SMILES: Nc1ncnc2c1c1ccsc1n2[C@@H]1O[C@H](CO)[C@@H](O)[C@H]1O [Compound 1f, 4-Amino-8-(β-D-ribofuranosyl)-8H-thieno[3′,2′:4,5]pyrrolo[2,3-d]pyrimidine]
pIC50 [1]: 4.30 to 4.60
pIC50 [2]: 6.05 to 6.70
pIC50 [3]: 4.30 to 4.60
pIC50 [4]: 4.30 to 4.60
pIC50 [5]: 5.00 to 6.05
pIC50 [6]: 4.30 to 4.60
pIC50 [7]: 6.05 to 6.70
pIC50 [8]: 6.05 to 6.70
IC50 values (range in words) [9]: micromolar range

SMILES: OC[C@H]1O[C@@H](n2c3ncnc(-c4ccoc4)c3c3ccsc32)[C@H](O)[C@@H]1O [Compound 1b, 4-(Furan-3-yl)-8-(β-D-ribofuranosyl)-8H-thieno[3′,2′:4,5]pyrrolo[2,3-d]pyrimidine]
pIC50 [1]: 4.30 to 4.60
pIC50 [2]: 4.30 to 4.60
pIC50 [3]: 4.30 to 4.60
pIC50 [4]: 4.30 to 4.60
pIC50 [5]: 4.30 to 4.60
pIC50 [6]: 4.30 to 4.60
pIC50 [7]: 4.30 to 4.60
pIC50 [8]: 4.30 to 4.60

SMILES: OC[C@H]1O[C@@H](n2c3ncnc(-c4cc5ccccc5o4)c3c3ccsc32)[C@H](O)[C@@H]1O [Compound 1c, 4-(Benzofuran-2-yl)-8-(β-D-ribofuranosyl)-8H-thieno[3′,2′:4,5]pyrrolo[2,3-d]pyrimidine]
pIC50 [1]: 4.30 to 4.60
pIC50 [2]: 4.60 to 5.00
pIC50 [3]: 4.60 to 5.00
pIC50 [4]: 4.30 to 4.60
pIC50 [5]: 4.30 to 4.60
pIC50 [6]: 4.30 to 4.60
pIC50 [7]: 4.60 to 5.00
pIC50 [8]: 4.30 to 4.60
IC50 values (range in words) [9]: micromolar range

melting point: 148 to 152 °C
SMILES: CSc1ncnc2c1c1ccsc1n2[C@@H]1O[C@H](CO)[C@@H](O)[C@H]1O [Compound 1h, 4-(Methylsulfanyl)-8-(β-D-ribofuranosyl)-8H-thieno[3′,2′:4,5]pyrrolo[2,3-d]pyrimidine]
pIC50 [1]: 6.05 to 6.70
pIC50 [2]: 6.70 to 8.00
pIC50 [3]: 4.30 to 4.60
pIC50 [4]: 6.70 to 8.00
pIC50 [5]: 6.05 to 6.70
pIC50 [6]: 6.05 to 6.70
pIC50 [7]: 4.60 to 5.00
pIC50 [8]: 6.70 to 8.00
IC50 values (range in words) [9]: sub-micromolar to nanomolar

SMILES: OC[C@H]1O[C@@H](n2c3ncnc(-c4ccco4)c3c3ccsc32)[C@H](O)[C@@H]1O [Compound 1a, 4-(Furan-2-yl)-8-(β-D-ribofuranosyl)-8H-thieno[3′,2′:4,5]pyrrolo[2,3-d]pyrimidine]
pIC50 [1]: 4.30 to 4.60
pIC50 [2]: 4.30 to 4.60
pIC50 [3]: 4.30 to 4.60
pIC50 [4]: 4.30 to 4.60
pIC50 [5]: 4.30 to 4.60
pIC50 [6]: 4.30 to 4.60
pIC50 [7]: 4.30 to 4.60
pIC50 [8]: 4.30 to 4.60

melting point: 159 to 160 °C
SMILES: COc1ncnc2c1c1ccsc1n2[C@@H]1O[C@H](CO)[C@@H](O)[C@H]1O [Compound 1g, 4-Methoxy-8-(β-D-ribofuranosyl)-8H-thieno[3′,2′:4,5]pyrrolo[2,3-d]pyrimidine]
pIC50 [1]: 5.00 to 6.05
pIC50 [2]: 6.70 to 8.00
pIC50 [3]: 4.30 to 4.60
pIC50 [4]: 6.05 to 6.70
pIC50 [5]: 6.05 to 6.70
pIC50 [6]: 6.05 to 6.70
pIC50 [7]: 4.60 to 5.00
pIC50 [8]: 6.70 to 8.00
IC50 values (range in words) [9]: sub-micromolar to nanomolar

melting point: 126 to 128 °C
SMILES: Cc1ncnc2c1c1ccsc1n2[C@@H]1O[C@H](CO)[C@@H](O)[C@H]1O [Compound 1d, 4-Methyl-8-(β-D-ribofuranosyl)-8H-thieno[3′,2′:4,5]pyrrolo[2,3-d]pyrimidine]
pIC50 [1]: 6.05 to 6.70
pIC50 [2]: 6.70 to 8.00
pIC50 [3]: 4.30 to 4.60
pIC50 [4]: 6.05 to 6.70
pIC50 [5]: 6.05 to 6.70
pIC50 [6]: 6.70 to 8.00
pIC50 [7]: 5.00 to 6.05
pIC50 [8]: 6.70 to 8.00
IC50 values (range in words) [9]: sub-micromolar to nanomolar
